Reference: US7304174B2, “CaSR antagonist” (Japan Tobacco Inc., priority 2003, dated 2007)

Legend:
[1] = test system: PTH secretion; test: PTH secretion action, Experimental Example 2 (serum PTH after oral administration); assay type: in vivo, male SD rats; conditions: comparative example, 30 mg/5 ml/kg oral
[2] = target: T1, human calcium receptor (Homo sapiens, UniProt P41180); test: Evaluation of antagonistic action on calcium receptor using reporter gene (luciferase); assay type: cell-based; conditions: transformed rat adrenal derived cells, 5 mM calcium chloride, culture 4 hrs, luciferase activity; read-out: Reporter gene assay (IC50, concentration showing 50% inhibitory rate)
T1 construct: expressed in transfected cells; host or cells: cell strain derived from rat adrenal, co-transformed with luciferase cDNA
T1 sequence (P41180 20-1078): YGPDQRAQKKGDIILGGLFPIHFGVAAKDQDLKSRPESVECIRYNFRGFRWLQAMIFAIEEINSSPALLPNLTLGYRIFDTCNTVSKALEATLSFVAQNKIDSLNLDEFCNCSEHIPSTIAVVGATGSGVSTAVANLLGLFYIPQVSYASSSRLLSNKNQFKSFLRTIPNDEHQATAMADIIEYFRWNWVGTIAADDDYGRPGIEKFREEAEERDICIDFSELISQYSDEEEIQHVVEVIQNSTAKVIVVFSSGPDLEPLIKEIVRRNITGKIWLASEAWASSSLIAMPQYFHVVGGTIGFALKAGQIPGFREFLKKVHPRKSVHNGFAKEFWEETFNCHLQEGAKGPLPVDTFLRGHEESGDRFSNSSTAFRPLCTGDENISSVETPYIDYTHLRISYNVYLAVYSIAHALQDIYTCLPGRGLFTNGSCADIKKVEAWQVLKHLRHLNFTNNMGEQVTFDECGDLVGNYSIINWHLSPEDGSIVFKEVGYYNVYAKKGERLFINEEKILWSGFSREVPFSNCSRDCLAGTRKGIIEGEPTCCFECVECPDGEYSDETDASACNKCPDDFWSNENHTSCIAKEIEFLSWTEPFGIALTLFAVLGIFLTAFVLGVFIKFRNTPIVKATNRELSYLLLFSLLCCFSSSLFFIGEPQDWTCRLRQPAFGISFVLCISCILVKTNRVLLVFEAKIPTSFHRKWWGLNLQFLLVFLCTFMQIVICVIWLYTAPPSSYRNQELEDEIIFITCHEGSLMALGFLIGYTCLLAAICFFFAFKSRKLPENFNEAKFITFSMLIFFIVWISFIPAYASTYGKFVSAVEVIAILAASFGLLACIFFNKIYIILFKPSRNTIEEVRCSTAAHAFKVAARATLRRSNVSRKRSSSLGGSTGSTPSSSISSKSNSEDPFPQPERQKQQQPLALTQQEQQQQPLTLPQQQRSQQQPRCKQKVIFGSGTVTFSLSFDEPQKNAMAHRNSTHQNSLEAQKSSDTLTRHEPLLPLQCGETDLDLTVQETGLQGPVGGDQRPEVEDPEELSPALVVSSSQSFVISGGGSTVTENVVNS
Summary of the method: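 Rat adrenal-derived cells transfected with luciferase and human calcium receptor cDNA, in F12 with 0.5% dialyzed horse serum and 0.25% dialyzed fetal bovine serum. Luciferase luminescence gave % inhibition vs control and blank; IC50 at 50% inhibition.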

[3] = target: T2, CYP2D6 (Homo sapiens, UniProt P10635); test: Metabolic enzyme CYP2D6 inhibitory activity (inhibition measurement kit); assay type: in vitro ADME; conditions: enzyme activity free of test compound as 100%, >10 means over 10 μM
T2 construct: purchased BD Bioscience
Protocol: Using a metabolic enzyme CYP2D6 inhibition measurement kit (BD Bioscience) and following the manual of the kit, the inhibitory activity of the test compound was measured. With the enzyme activity free of the test compound as 100%, the concentration (IC50) showing 50% inhibition was determined. The results are shown in Table 63 and Table 64, wherein “>10” means over 10 μM.

[4] = test system: PTH secretion; test: PTH secretion action, Experimental Example 3 (serum PTH after oral administration); assay type: in vivo, male SD rats; conditions: test compound administration group, 1 mg/5 ml/kg oral, rats fasted 20 hrs
Protocol: The test compound was orally administered to 5 to 9-week-old male SD rats (Charles River Japan, Inc.) fasted for 20 hrs, using a solvent (0.5% methyl cellulose solution) at a dose of 1 mg/5 ml/kg. A solvent alone was orally administered to the control group at a dose of 5 ml/kg. The blood was drawn from the tail vein immediately before and 15 min, 30 min after administration of the test compound, and serum was obtained. The serum PTH concentration was measured using rat PTH ELISA kit (Amersham Biosciences).

[5] = test system: bone resorption; test: Concomitant administration of test compound and estrogen: bone resorption marker blood ICTP; assay type: in vivo, ovariectomized rats; conditions: day 13, exclusive administration (Group B estradiol 10 μg/kg s.c.; Group C Example 1-1 3 mg/kg oral), mean ± S.D., n = 5
Protocol: The 13-week-old ovariectomized rats were divided into 4 groups of a control group (Group A), an estrogen administration group (Group B), a test compound administration group (Group C), and a test compound and estrogen concomitant administration group (Group D). One sham control group (E group) subjected to a sham surgery was also established. Estradiol was dissolved in 5% benzyl alcohol-corn oil and subcutaneously administered to an estrogen administration groups (Group B and Group D) at the dose of 10 μg/kg. 5% Benzyl alcohol-corn oil was subcutaneously administered to groups (Group A and Group C) free from administration of estrogen. The compound of Example 1-1 was suspended in 0.5% methyl cellulose solution and orally administered to groups (Group C and Group D) to be administered with the test compound at the dose of 3 mg/kg. As regards the groups (Group A and Group B) free from administration of the test compound, 0.5% methyl cellulose solution was orally administered. On day 13 from the start of the administration, the blood was drawn in each group from the tail vein, and serum was obtained. ICTP, which is a blood bone resorption marker, was measured using a commercially available ELISA kit (“RatLaps ELISA kit”, Nordic Bioscience Diagnostics).

[6] = test system: PTH secretion; test: Concomitant administration of test compound and estrogen: blood PTH with time; assay type: in vivo, ovariectomized rats
Protocol: The 13-week-old ovariectomized rats were divided into 4 groups of a control group (Group A), an estrogen administration group (Group B), a test compound administration group (Group C), and a test compound and estrogen concomitant administration group (Group D). One sham control group (E group) subjected to a sham surgery was also established. Estradiol was dissolved in 5% benzyl alcohol-corn oil and subcutaneously administered to an estrogen administration groups (Group B and Group D) at the dose of 10 μg/kg. 5% Benzyl alcohol-corn oil was subcutaneously administered to groups (Group A and Group C) free from administration of estrogen. The compound of Example 1-1 was suspended in 0.5% methyl cellulose solution and orally administered to groups (Group C and Group D) to be administered with the test compound at the dose of 3 mg/kg. As regards the groups (Group A and Group B) free from administration of the test compound, 0.5% methyl cellulose solution was orally administered.
In addition, blood was drawn with time for the measurement of blood PTH at day 16 of administration. The blood was drawn in each group from the tail vein immediately before oral administration and 0.25, 0.5, 1, 2 and 4 hr later, and serum was obtained. For serum PTH measurement, a commercially available ELISA kit (“rat intact PTH ELISA kit”, Immutopics) was used.

[7] = test system: PTH release; conditions: OVX rat, cited from earlier work

T2 sequence (P10635 whole entry): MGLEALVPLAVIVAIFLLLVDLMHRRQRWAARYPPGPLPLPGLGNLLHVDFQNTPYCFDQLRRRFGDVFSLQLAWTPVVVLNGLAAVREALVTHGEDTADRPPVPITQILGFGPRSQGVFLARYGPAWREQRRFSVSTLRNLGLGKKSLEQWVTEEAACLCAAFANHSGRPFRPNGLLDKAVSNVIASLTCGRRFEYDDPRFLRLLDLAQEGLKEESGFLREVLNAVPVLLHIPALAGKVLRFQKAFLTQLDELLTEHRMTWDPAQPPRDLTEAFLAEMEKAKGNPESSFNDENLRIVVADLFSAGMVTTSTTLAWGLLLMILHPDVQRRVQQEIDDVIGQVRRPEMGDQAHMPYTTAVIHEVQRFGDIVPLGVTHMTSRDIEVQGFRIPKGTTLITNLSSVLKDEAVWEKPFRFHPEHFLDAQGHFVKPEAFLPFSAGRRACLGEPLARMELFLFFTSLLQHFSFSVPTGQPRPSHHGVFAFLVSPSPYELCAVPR

COc1ccc(-c2cccc(C(=O)O)c2)cc1C(OC[C@H](O)CNC(C)(C)Cc1ccc2ccccc2c1)C1CC1 (stereo partly drawn)
PTH secretion activity [1]: no PTH secretion activity was exhibited

Cc1ccc(CC(C)(C)NC[C@@H](O)CO[C@H](C)c2ccccc2-c2ccc(C(=O)O)c(C(C)C)c2)cc1F [Example 1-34, 2′-[1-[(2R)-3-[[1-(3-fluoro-4-methylphenyl)-2-methylpropan-2-yl]amino]-2-hydroxypropoxy]ethyl]-3-isopropylbiphenyl-4-carboxylic acid]
IC50 [2]: 5 nM
IC50 [3]: > 10000 nM

Cc1ccc(CC(C)(C)NC[C@@H](O)CO[C@H](C)c2ccccc2Oc2ccc(C(=O)O)cc2)cc1F [Example 2-1, 4-[2-[(1R)-[(2R)-3-[[1-(3-fluoro-4-methylphenyl)-2-methylpropan-2-yl]amino]-2-hydroxypropoxy]ethyl]phenoxy]benzoic acid]
IC50 [2]: 15 nM
Serum PTH concentration 15 min later ([4]; 15 min): 25.1 ± 2.3 pg/mL
Serum PTH concentration 30 min later ([4]; 30 min): 19.1 ± 0.9 pg/mL

Cc1cc(C(=O)O)ccc1-c1ccccc1[C@@H](C)OC[C@H](O)CNC(C)(C)Cc1ccc(Cl)c(Cl)c1 [Example 1-57, 2′-[1-[(2R)-3-[[1-(3,4-dichlorophenyl)-2-methylpropan-2-yl]amino]-2-hydroxypropoxy]ethyl]-2-methylbiphenyl-4-carboxylic acid]
IC50 [2]: 27 nM
IC50 [3]: > 10000 nM

CC(OC[C@H](O)CNC(C)(C)Cc1ccc2ccccc2c1)c1ccccc1OCc1ccccc1C(=O)O (stereo partly drawn) [2-20′]
IC50 [2]: 21 nM
IC50 [3]: > 10000 nM

C[C@]12CC[C@@H]3c4ccc(O)cc4CC[C@H]3[C@@H]1CC[C@@H]2O [Estradiol, reference compound]
Blood ICTP concentration [5]: 20.93 ± 3.18 ng/mL
Change of blood PTH with time ([6]; Table 66, exclusive administration): increase in blood PTH was not observed
PTH (1–84) concentration 0.25 hr ([6]; day 16, 0.25 hr, exclusive administration (Group B estradiol; Group C Example 1-1 3 mg/kg oral)): 53.65 ± 56.31 pg/mL
PTH (1–84) concentration 0.5 hr ([6]; day 16, 0.5 hr, exclusive administration (Group B estradiol; Group C Example 1-1 3 mg/kg oral)): 56.55 ± 21.71 pg/mL
PTH (1–84) concentration 1 hr ([6]; day 16, 1 hr, exclusive administration (Group B estradiol; Group C Example 1-1 3 mg/kg oral)): 35.70 ± 21.30 pg/mL
PTH (1–84) concentration 2 hr ([6]; day 16, 2 hr, exclusive administration (Group B estradiol; Group C Example 1-1 3 mg/kg oral)): 41.94 ± 20.85 pg/mL
PTH (1–84) concentration 4 hr ([6]; day 16, 4 hr, exclusive administration (Group B estradiol; Group C Example 1-1 3 mg/kg oral)): 46.84 ± 14.62 pg/mL
PTH (1–84) concentration 0 hr ([6]; day 16, immediately before oral administration, exclusive administration (Group B estradiol 10 μg/kg s.c.; Group C Example 1-1 3 mg/kg oral)): 36.83 ± 14.45 pg/mL

COc1cc(-c2ccccc2[C@@H](C)OC[C@H](O)CNC(C)(C)Cc2ccc3ccccc3c2)ccc1C(=O)O [Example 1-26, 2′-[1-[(2R)-3-[[1-(naphthalen-2-yl)-2-methylpropan-2-yl]amino]-2-hydroxypropoxy]ethyl]-3-methoxybiphenyl-4-carboxylic acid]
IC50 [2]: 14 nM
IC50 [3]: > 10000 nM

COc1cc(CC(C)(C)NC[C@@H](O)CO[C@H](C)c2ccccc2-c2ccc(C(=O)O)c(C)c2)ccc1C [Example 1-73, 2′-[1-[(2R)-3-[[1-(3-methoxy-4-methylphenyl)-2-methylpropan-2-yl]amino]-2-hydroxypropoxy]ethyl]-3-methylbiphenyl-4-carboxylic acid]
IC50 [2]: 7 nM
IC50 [3]: > 10000 nM

CC(C)c1cc(-c2ccccc2[C@@H](C)OC[C@H](O)CNC(C)(C)Cc2ccc3ccccc3c2)ccc1C(=O)O [Example 1-32, 2′-[1-[(2R)-3-[[1-(naphthalen-2-yl)-2-methylpropan-2-yl]amino]-2-hydroxypropoxy]ethyl]-3-isopropylbiphenyl-4-carboxylic acid]
IC50 [2]: 2 nM
IC50 ([3]; human, CYP2D6 inhibition measurement kit (BD Bioscience)): 10000 nM

rat PTH (1-34): rat parathyroid hormone fragment (1-34) administered to OVX rat (AVSEIQLMHNLGKHLASVERMQWLRKKLQDVHNF; Parathyroid hormone; UniProt P04089 32-65, looked up, fragment)
Time until blood PTH returned to the original level ([7]; 5 μg/kg): 2 h
Blood PTH concentration in 30 minutes ([7]; rat PTH (1-34) 5 μg/kg, NPS-2143 100 μmol/kg): about 175 pg/ml

CC(C)=Cc1cc(-c2ccccc2[C@@H](C)OC[C@H](O)CNC(C)(C)Cc2ccc(C)c(F)c2)ccc1C(=O)O [Example 1-48, 2′-[1-[(2R)-3-[[1-(3-fluoro-4-methylphenyl)-2-methylpropan-2-yl]amino]-2-hydroxypropoxy]ethyl]-3-(2-methyl-1-propenyl)biphenyl-4-carboxylic acid]
IC50 [2]: 2 nM
IC50 [3]: > 10000 nM

Cc1ccc(CC(C)(C)NC[C@@H](O)CO[C@H](C)c2ccccc2-c2ccc(C(=O)O)c(Cl)n2)cc1F [Example 1-39, 2-chloro-6-[2-[1-[(2R)-3-[[1-(3-fluoro-4-methylphenyl)-2-methylpropan-2-yl]amino]-2-hydroxypropoxy]ethyl]phenyl]pyridine-3-carboxylic acid]
IC50 [2]: 12 nM
IC50 [3]: > 10000 nM
